Results reported in paper PMC3463587, “A Series of Beta-Carboline Derivatives Inhibit the Kinase Activity of PLKs” (PLoS ONE, 2012).

System: MRC5 cells
Assay: FITC-Annexin V/PI apoptosis assay, MRC5
Assay type: cell-based, Human
Settings: 48 hr
Excerpt: Staining with Annexin V–FITC and propidium iodide (PI) is commonly used to distinguish apoptotic, necrotic, and dead cells. PI is impermeant to live cells and apoptotic cells at early stages, but it stains dead cells and apoptotic cells at late stages through its binding to the nucleic acids. Apoptotic cells in early or late stages are stained positively for Annexin V-FITC that binds to phosphotidylserine. We used FACS analysis to determine the proportion of HeLa cells positive for Annexin V-FITC (FITC), PI, or both. The HeLa cells with PI^−/PI^+ FITC^+ were counted as apoptotic cells (Figure 5). […] However, 16.19% (3.96+12.23) of HeLa cells became FITC positive after treatment with 1.05 µM DH281 for 48 hr. The treatment with 5.25 µM DH281 induced apoptosis among 89.6% (89.51+0.09) of HeLa cells (Table 5). […] In contrast to HeLa cells, the induction of apoptosis by DH281 was much less efficient in non-cancer MRC5 cells (Table 5). Therefore, we conclude that the treatment with compounds DH281, DH285 and DH287 induces substantial apoptosis in HeLa cells, but non-cancer MRC5 cells are much less sensitive to the treatment. The distinct apoptotic responses of HeLa and MRC5 cells to beta-carboline compounds could explain the selectivity of PLK1 inhibitors toward cancer cells.
HeLa cells were either treated with 0, 0.21, 1.05 and 5.25 µM of DH281, DH285 and DH287 for 48 hr, or treated with 1.21 µM compounds for 24, 48 and 72 hr, while MRC5 cells were exposed to compounds at 0, 0.21, 1.05, and 5.25 µM for 48 hr. The cultured cells were harvested, washed three times with PBS, and resuspended in 500 µl binding buffer (10 mM Hepes/sodium hydroxide (pH7.4), 140 mM sodium chloride, and 2.5 mM CaCl2). Then 5 µl FITC-labeled Annexin V (Zhongshan JinQiao Biotechnology Ltd., Beijing) was added and the cells were incubated in the dark for 10 min. We added 5 µl of propidium iodide (PI) (10 µg/ml in binding buffer) to each sample before flow cytometry analysis.

What does the source list for `Cc1c2c(cc[n+]1Cc1ccccc1)c1ccc(OCc3ccc(F)cc3)cc1n2CCCc1ccccc1` [DH281]?
PI+ FITC+ (late apoptotic cells) (MRC5, 0.21 µM): 5.07%; PI+ FITC− (dead cells) (MRC5, 0.21 µM): 1.63%; PI− FITC− (live cells) (MRC5, 0.21 µM): 92.4%; PI+ FITC+ (late apoptotic cells) (MRC5, 1.05 µM): 0.59%; PI+ FITC− (dead cells) (MRC5, 1.05 µM): 0.01%; PI− FITC+ (early apoptotic cells) (MRC5, 1.05 µM): 13.3%; PI− FITC− (live cells) (MRC5, 1.05 µM): 86.1%; PI+ FITC+ (late apoptotic cells) (MRC5, 5.25 µM): 7.76%; PI+ FITC− (dead cells) (MRC5, 5.25 µM): 10.5%; PI− FITC+ (early apoptotic cells) (MRC5, 5.25 µM): 18.5%; PI− FITC− (live cells) (MRC5, 5.25 µM): 63.2%
